From patent US11491134B2, “Composition for inhibiting skin cell proliferation and/or anti-inflammation method for inhibiting skin cell proliferation and/or anti-inflammation and method for treating skin diseases and/or inflammatory diseases” (Industrial Technology Research Institute, priority 2019, dated 2022)

System: macrophages, RAW264.7 cells
Test: Inhibition rate on inflammation (anti-inflammatory activity): nitric oxide, Griess reagent, LPS-treated macrophages
Type: cell-based
Details: Mus musculus; for inhibition at 1.5625 µM: apigenin 1.5625 μM/0.42 μg/mL; for inhibition at 3.125 µM: apigenin 3.125 μM/0.84 μg/mL; for inhibition at 6.25 µM: apigenin 6.25 μM/1.69 μg/mL; for inhibition at 12.5 µM: apigenin 12.5 μM/3.38 μg/mL; for inhibition at 25 µM: apigenin 25 μM/6.76 μg/mL; for inhibition at 50 µM: apigenin 50 μM/13.51 μg/mL; for inhibition at 0.625 µM: apigenin 0.625 μM/0.17 μg/mL; for inhibition at 1.25 µM: apigenin 1.25 μM/0.34 μg/mL; for inhibition at 2.5 µM: apigenin 2.5 μM/0.68 μg/mL; for inhibition at 5 µM: apigenin 5 μM/1.35 μg/mL; for inhibition at 10 µM: apigenin 10 μM/2.70 μg/mL; for inhibition at 0.3125 µM: apigenin 0.3125 μM/0.08 μg/mL
Method: Dimethyl sulfoxide (DMSO) was used as a solvent to prepare apigenin test samples with different concentrations and luteolin test samples with different concentrations. 9 batches of experiments were performed, which respectively were Batch 1 to Batch 9. There were 6 independent experiments in each batch of experiments. In each independent experiment, inhibition rate of an apigenin test sample with a specific concentration on inflammation and inhibition rate of a luteolin test sample with a specific concentration on inflammation were determined, and inhibition rate of a combination of an apigenin test sample with the said specific concentration and a luteolin test sample with the said specific concentration on inflammation was determined. Between the independent experiments, concentrations of apigenin test samples used were different, and concentrations of luteolin test samples used were also different, however, mole ratios or weight ratios of apigenin test samples to luteolin test samples were the same. Moreover, between the batches of experiments, mole ratios or weight ratios of apigenin test samples to luteolin test samples were different. 5×10^4 macrophages, RAW264.7 cells, were inoculated in a 96-well culture plate and then placed in a 37° C. and 5% CO2 incubator for culturing overnight. After overnight culture, the supernatant was removed, and lipopolysaccharide (LPS) (50 ng/mL) and a test sample was added to the cells (refer to Table 2, and the cells of the induced group were treated with lipopolysaccharide and dimethyl sulfoxide while the cells of the control group were only treated with dimethyl sulfoxide) for reaction for 24 hours. Thereafter, the supernatant of each well in the culture plate was transferred to a new culture plate and reacted with Griess reagent (Promega, Cat. No. G2930), respectively, and then the absorbance of each well of the culture plate was determined at 540 nm by a continuous wavelength microplate reader to evaluate the content of nitric oxide (NO), and anti-inflammatory activity was calculated through the following formula: Anti-inflammation=(Induced group540 nm−Experimental group540 nm)/(Induced group540 nm−Control group540 nm) In this experiment, the synergistic effects of apigenin and luteolin were evaluated by CalcuSyn software (BIOSOFT). CalcuSyn software is an analysis software which is commonly used to analyze the drug dosage effect of single drug and multiple drugs at present. CalcuSyn software can be used to analyze drug complex interactions and automatically quantify various phenomena such as synergism and inhibition. CalcuSyn software can process the data of individual drugs and combination drugs with constant-ratio or on-constant-ratio, and can evaluate the interaction of combination drugs by the combination index (CI) (Chou and Talalay, Adv. Enzyme Regul. 22:27-55 (1984) calculated by CalcuSyn software. Calculation formula for the combination index is shown in the following: Combination index=C1/IC1+C2/IC2 C1 and C2 are the respective concentrations of the first compound and the second compound at which the activity of achieving a specific physiological or medical purpose is 50% (or 75%, or 90%) when the first compound and the second compound are analyzed in combination; IC1 and IC2 are the respective concentrations at which the activity of achieving a specific physiological or medical purpose of the first compound and the second compound is 50% (or 75%, or 90%) when the first compound and the second compound are independently analyzed. […]

## O=c1cc(-c2ccc(O)cc2)oc2cc(O)cc(O)c12 [Apigenin, apigenin]
RAW264.7, Batch 1
  inhibition at 1.5625 µM: 1.1%
  inhibition at 3.125 µM: 7%
  inhibition at 6.25 µM: 26.3%
  inhibition at 12.5 µM: 48.1%
  inhibition at 25 µM: 78.7%
  inhibition at 50 µM: 99.9%
RAW264.7, Batch 2
  inhibition at 1.5625 µM: 2%
  inhibition at 3.125 µM: 16.6%
  inhibition at 6.25 µM: 23.7%
  inhibition at 12.5 µM: 32.9%
  inhibition at 25 µM: 74.1%
  inhibition at 50 µM: 99.9%
RAW264.7, Batch 3
  inhibition at 1.5625 µM: 0.1%
  inhibition at 3.125 µM: 0.9%
  inhibition at 6.25 µM: 20.2%
  inhibition at 12.5 µM: 57.9%
  inhibition at 25 µM: 93.8%
  inhibition at 50 µM: 99.5%
RAW264.7, Batch 4
  inhibition at 1.5625 µM: 0.1%
  inhibition at 3.125 µM: 0.1%
  inhibition at 6.25 µM: 12%
  inhibition at 12.5 µM: 45.4%
  inhibition at 25 µM: 93.4%
  inhibition at 50 µM: 99.9%
RAW264.7, Batch 5
  inhibition at 1.5625 µM: 3.4%
  inhibition at 3.125 µM: 11.2%
  inhibition at 6.25 µM: 27.9%
  inhibition at 12.5 µM: 59.5%
  inhibition at 25 µM: 92.7%
  inhibition at 50 µM: 97.6%
RAW264.7, Batch 6
  inhibition at 1.5625 µM: 18.9%
  inhibition at 3.125 µM: 7.4%
  inhibition at 6.25 µM: 28.9%
  inhibition at 12.5 µM: 59.4%
  inhibition at 25 µM: 97.2%
  inhibition at 50 µM: 99.9%
RAW264.7, Batch 7
  inhibition at 0.625 µM: 0.1%
  inhibition at 1.25 µM: 0.1%
  inhibition at 2.5 µM: 3.2%
  inhibition at 5 µM: 30%
  inhibition at 10 µM: 65.3%
RAW264.7, Batch 7, apigenin 20 μM/5.40 μg/mL
  inhibition at 20 µM: 96%
RAW264.7, Batch 8
  inhibition at 0.3125 µM: 0.1%
  inhibition at 0.625 µM: 0.1%
  inhibition at 1.25 µM: 0.1%
  inhibition at 2.5 µM: 0.6%
  inhibition at 5 µM: 20.6%
  inhibition at 10 µM: 51%
RAW264.7, Batch 9, apigenin 0.078 μM/0.02 μg/mL
  inhibition at 0.078 µM: 2%
RAW264.7, Batch 9, apigenin 0.156 μM/0.04 μg/mL
  inhibition at 0.156 µM: 0.2%
RAW264.7, Batch 9
  inhibition at 0.3125 µM: 10.4%
  inhibition at 0.625 µM: 6.5%
  inhibition at 1.25 µM: 6.5%
  inhibition at 2.5 µM: 14.9%
